# From PubChem BioAssay (NCI)
# Where “and” joins values, the source holds several entries; their conditions need not be identical. Equal entries are not always repeated.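 Assay format: 96-well plates, 48-hour exposure. At the GI50, growth is halved. TGI: concentration producing complete growth inhibition.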
# How the values were obtained:
# Test in all cases: NCI tumour cell line growth inhibition, 48 h
# HCT-116 colon = test system: HCT-116 colon
# HOP-62 NSCLC = test system: HOP-62 NSCLC
# NCI-H522 lung = test system: NCI-H522 lung
# OVCAR-4 ovarian = test system: OVCAR-4 ovarian
# SF-295 CNS = test system: SF-295 CNS
# SN12C renal = test system: SN12C renal
# SNB-19 CNS = test system: SNB-19 CNS
# UACC-62 melanoma = test system: UACC-62 melanoma
# UO-31 renal = test system: UO-31 renal
# HOP-92 NSCLC = test system: HOP-92 NSCLC
SMILES,TGI (HCT-116 colon),TGI (HOP-62 NSCLC) [µM],TGI (NCI-H522 lung) [µM],TGI (OVCAR-4 ovarian) [µM],TGI (SF-295 CNS),TGI (SN12C renal),TGI (SNB-19 CNS),TGI (UACC-62 melanoma) [µM],TGI (UO-31 renal),TGI (HOP-92 NSCLC) [µM],GI50 (HOP-62 NSCLC) [µM],GI50 (SF-295 CNS) [µM],GI50 (SNB-19 CNS) [µM],GI50 (UO-31 renal) [µM]
O=c1[nH]c2ccccc2nc1/C=C(\O)C(F)F,> 100 µM,> 100,> 100,> 100,> 100 µM,> 100 µM,> 100 µM,> 100,> 100 µM,–,–,–,–,–
COc1ccc(C[C@H](N)C(=O)N2C[C@H](CO)C[C@H](n3cnc4c(N(C)C)ncnc43)C2)cc1,> 100 µM,> 100,> 100,> 100,–,> 100 µM,> 100 µM,> 100,> 100 µM,> 100,–,–,–,–
CC(C)[C@H]1NC(=O)[C@H]2N=C(O[C@@H]2C)[C@@H]2CCCN2C(=O)[C@H](Cc2ccccc2)NC(=O)[C@@H]2CSC(=N2)[C@@H](Cc2ccccc2)NC(=O)[C@@H]2CSC1=N2,> 100 µM,> 100,> 100,> 100,> 100 µM,> 100 µM,> 100 µM,> 100,> 100 µM,–,–,–,–,–
OCC(O)C1OC2CC1Nc1ccccc1N2 (stereo not drawn),> 100 µM,> 100,> 100,–,> 100 µM,> 100 µM,> 100 µM,> 100,> 100 µM,> 100,–,–,–,–
CN(C)CCCNc1c2ccccc2nc2cccc([N+](=O)[O-])c12,0.0132 µM and 0.0316 µM,–,< 0.001,< 0.001,0.0167 µM and 0.0867 µM,0.0137 µM and 0.0343 µM,0.0171 µM and 0.142 µM,–,0.0107 µM and 0.0363 µM,0.00435,0.0222,< 0.001,0.0303,< 0.001
CC(=O)NC1C(OCc2ccccc2)OC(CO)C(O)C1OCC(=O)NC(C)C(=O)NC(CCC(=O)NCCCCCNc1c2ccccc2nc2cccc([N+](=O)[O-])c12)C(N)=O (stereo not drawn),< 0.0001 µM,–,0.0045,0.00615,0.0265 µM,< 0.0001 µM,–,–,–,0.00311,–,–,–,–
COC(=O)c1ccccc1C#CCCCOS(C)(=O)=O,> 10 µM,> 10,–,> 10,> 10 µM,> 10 µM,> 10 µM,> 10,> 10 µM,–,–,–,–,–
Cn1c(-c2ccc[se]2)ccc1-c1ccc(CO)[se]1,> 100 µM,–,> 100,> 100,> 100 µM,> 100 µM,> 100 µM,> 100,> 100 µM,43.2,–,–,–,–
COc1ccc(C[C@H](N)C(=O)N2C[C@H](CO)C[C@H](n3ccc(=O)[nH]c3=O)C2)cc1,> 100 µM,> 100,> 100,> 100,–,> 100 µM,> 100 µM,> 100,> 100 µM,> 100,–,–,–,–
O=C1C=C2CO[C@H]3OC[C@H](O)[C@@H]1[C@@H]23,> 100 µM,> 100,33.1,–,> 100 µM,90 µM,> 100 µM,> 100,> 100 µM,> 100,–,–,–,–
CC(C)(C)OC(=O)NC(Cc1ccc(O)cn1)C(N)=O (stereo not drawn),> 100 µM,> 100,> 100,> 100,> 100 µM,> 100 µM,> 100 µM,–,> 100 µM,> 100,–,–,–,–
NS(=O)(=O)c1ccc(Nc2c3ccccc3nc3c(C(=O)NCCCN(CCO)CCO)cccc23)cc1,–,66.1,44.1,> 100,> 100 µM,46.5 µM,45.7 µM,57.8,> 100 µM,> 100,–,–,–,–
Cc1cc2ccccc2n1CC(=O)N1CCCC1,> 100 µM,> 100,> 100,> 100,–,> 100 µM,> 100 µM,> 100,> 100 µM,> 100,–,–,–,–
O=C(CN1CCCCC1)c1ccc2c(c1)Sc1ccccc1O2,35 µM,32.5,–,27.5,30.9 µM,42.7 µM,28.9 µM,25.7,22.9 µM,28,–,–,–,–
COc1ccccc1NC(=S)N/N=C(/C)c1ccccn1,13.8 µM,36.7,> 100,> 100,> 100 µM,6.73 µM,> 100 µM,–,> 83.4 µM,> 100,–,–,–,–
CCOC(=O)CCc1c(C(=O)OCC)[nH]c(/C=C2\NC(=O)C(C)=C2CC)c1C,> 100 µM,27.6,30.7,59.4,41.3 µM,> 100 µM,–,44.9,> 100 µM,45.1,–,–,–,–
Cc1ccc(C)c(COCCOCn2cc(Br)c(N)nc2=O)c1,> 100 µM,> 100,> 100,–,> 100 µM,> 100 µM,> 100 µM,> 100,> 100 µM,> 100,–,–,–,–
CC(=Nc1c2ccccc2nc2ccccc12)N(C)C,27.6 µM,66.2,25.5,90.8,> 100 µM,–,> 100 µM,32.9,54.6 µM,37.2,–,–,–,–
C[C@H](CC[C@@H](O)C(C)(C)O)[C@H]1CC[C@@]2(C)[C@@H]3CC=C4[C@@H](CC[C@H](O)C4(C)C)[C@]3(C)C(=O)C[C@]12C,> 50 µM,> 50,> 50,> 50,> 50 µM,> 50 µM,> 50 µM,–,> 50 µM,–,–,–,–,–
Cc1ccc(NC(=S)Nc2c(C)n(C)n(-c3ccccc3)c2=O)cc1,> 100 µM,> 100,> 100,–,> 100 µM,–,> 100 µM,> 100,> 100 µM,> 100,–,–,–,–
CCc1nn(S(=O)(=O)c2ccc(C)cc2)c2c1CS(=O)(=O)CC2,> 100 µM,> 100,–,> 100,> 100 µM,> 100 µM,> 100 µM,> 100,> 100 µM,–,–,–,–,–
C[C@@H]1C[C@]2(C[C@@H](C)[C@H]3C(C[C@@]4(C)CCC[C@@H]5C6=C[C@H](CCC34C)OC6=CC(=O)OC5(C)C)O2)OC1=O (stereo partly drawn),–,> 51.5,> 51.5,> 51.5,> 51.5 µM,> 51.5 µM,> 51.5 µM,> 51.5,> 51.5 µM,> 51.5,–,–,–,–
CO/C(=N\N=C\c1ccc(Cl)cc1Cl)c1ccncc1,> 10 µM,> 10,> 10,> 10,> 10 µM,> 10 µM,> 10 µM,–,> 10 µM,> 10,–,–,–,–
